Measurements as given in US20060264460A1 (Wyeth, priority 2005, published 2006).

Target: T1, human Cot/Tpl2 kinase (Homo sapiens, UniProt P41279)
T1 construct: human Cot/Tpl2 kinase construct encoding residues 30-398; 6His (N); made in house; host or cells: Sf9 insect cells, baculovirus system (BD Biosciences)
Assay: Tpl2/Cot kinase assay: GST-MEK1 phosphorylation detected by ELISA (DELFIA Eu)
Assay type: biochemical
Procedure: Sf9 cells expressing the kinase were lysed in 50 mM NaPhosphate pH=8; 300 mM NaCl; 5 mM imidazole; 0.1 mM EGTA; 25 mM beta-glycerophosphate; 1% TX-100, 1% glycerol; 6 mM beta-mercaptoethanol and protease inhibitors. The lysate was clarified by centrifugation and was loaded onto a Ni-Sepharose column. The column was washed with 50 mM NaPhosphate pH=8; 300 mM NaCl; 15 mM imidazole; 1% glycerol; and 6 mM beta-mercaptoethanol. His-Tpl2 was eluted with 50 mM NaPhosphate pH=8; 300 mM NaCl; 250 mM imidazole; 1% glycerol; and 6 mM beta-mercaptoethanol. The eluted protein was further purified by size exclusion chromatography. Fractions corresponding to monomeric Tpl2 were then used in the assay.
Tpl2/Cot activity was directly assayed using GST-MEK1 as a substrate. GST-MEK1 phosphorylation on serine residues 217 and 221 was detected by ELISA. 0.4 nM Tpl2 was incubated with 35 nM GST-MEK1 in a kinase reaction buffer containing 20 mM MOPS pH=7.2; 50 uM ATP; 20 mM MgCl2; 1 mM DTT; 25 mM β-glycerophosphate; 5 mM EGTA; and 1 mM sodium orthovanadate for 1 h at 30° C. The compounds of the inventions solubilized in 100% DMSO were pre-diluted in assay buffer so that the final concentration of DMSO in the reaction was 1%. The kinase reaction was carried out in 100 ul volume on 96 well plates. The kinase reaction was then stopped with the addition of 100 mM EDTA. […] After a 1 hour incubation at room temperature, the detection plate was washed 4 times with TBST (TBS+0.05% Tween 20) and then incubated for another hour at room temperature with anti phospho-MEK1 antibody (Cell Signaling) 1:1000 in 10 mM MOPS 7.5; 150 mM NaCl; 0.05% Tween 20; 0.1% Gelatin; 0.02% NaN3; and 1% BSA. The detection plate was washed again and incubated for 30 min with DELFIA Europium (Eu) labeled goat anti-rabbit IgG (Perkin-Elmer), 1:4000 in the same buffer used for the primary incubation. After a final wash, Eu detection solution was added to each well and the Eu signal was measured in a Wallac Victor^2 Multilabel Counter. IC50 calculations were performed using the XLfit software package (IDBS, Guildford, UK).

[1] = 0.4 nM Tpl2, 35 nM GST-MEK1, 50 uM ATP, 1 h at 30° C.
[2] = Table 2, Tpl2/Cot kinase, GST-MEK1 substrate, 50 uM ATP
[3] = Tpl2/Cot kinase, GST-MEK1 substrate, 50 uM ATP, 1 h at 30° C., Table 2
[4] = Tpl2/Cot kinase, GST-MEK1 substrate, 50 uM ATP

T1 sequence (P41279 30-398): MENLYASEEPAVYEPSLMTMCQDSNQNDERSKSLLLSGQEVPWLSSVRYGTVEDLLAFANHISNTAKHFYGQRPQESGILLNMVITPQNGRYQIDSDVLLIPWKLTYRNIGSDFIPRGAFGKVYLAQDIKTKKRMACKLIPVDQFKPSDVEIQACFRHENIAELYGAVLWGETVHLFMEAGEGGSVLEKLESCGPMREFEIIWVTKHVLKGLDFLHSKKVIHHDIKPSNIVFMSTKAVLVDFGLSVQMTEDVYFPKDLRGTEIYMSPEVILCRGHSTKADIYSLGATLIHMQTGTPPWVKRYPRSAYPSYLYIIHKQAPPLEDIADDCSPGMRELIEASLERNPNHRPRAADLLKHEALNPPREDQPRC

IC50 [1]	IC50 [2]	Compound	further results
	1300 nM	N#Cc1cnc2c(Cl)cc(NCc3cccc(O)c3O)cc2c1Nc1ccc(F)c(Cl)c1 [Example 458]	
19900 nM		Cc1nc2ccc(NCc3cnc[nH]3)cc2c(Nc2ccc(F)c(Cl)c2)c1C#N [Example 254, 4-[(3-chloro-4-fluorophenyl)amino]-6-[(1H-imidazol-5-ylmethyl)amino]-2-methylquinoline-3-carbonitrile]	
2600 nM		N#Cc1cnc2c(Cl)cc(NCC3=NCCN3)cc2c1Nc1ccc(F)c(Cl)c1 [Example 204, 8-chloro-4-[(3-chloro-4-fluorophenyl)amino]-6-[(4,5-dihydro-1H-imidazol-2-ylmethyl)amino]quinoline-3-carbonitrile]	
32 nM		Cc1cccc(CNc2cc(Cl)c3ncc(C#N)c(Nc4ccc(F)c(Cl)c4)c3c2)[n+]1[O-] [Example 195, 8-chloro-4-[(3-chloro-4-fluorophenyl)amino]-6-{[(6-methyl-1-oxidopyridin-2-yl)methyl]amino}quinoline-3-carbonitrile]	
47 nM		N#Cc1cnc2c(Cl)cc(NCc3cncnc3)cc2c1Nc1ccc(F)c(Cl)c1 [Example 272, 8-Chloro-4-(3-chloro-4-fluoro-phenylamino)-6-[(pyrimidin-5-ylmethyl)-amino]-quinoline-3-carbonitrile]	
280 nM		N#Cc1cnc2c(Cl)cc(NCc3cn(CS(=O)(=O)N4CCOCC4)nn3)cc2c1Nc1ccc(F)c(Cl)c1 [Example 224, 8-chloro-4-(3-chloro-4-fluorophenylamino)-6-((1-(morpholinosulfonylmethyl)-1H-1,2,3-triazol-4-yl)methylamino)quinoline-3-carbonitrile]	
> 40000 nM		N#Cc1ccccc1CNc1cc(C(F)(F)F)c2ncc(C#N)c(Nc3ccc(F)c(Cl)c3)c2c1 [Example 233, 4-[(3-chloro-4-fluorophenyl)amino]-6-[(2-cyanobenzyl)amino]-8-(trifluoromethyl)quinoline-3-carbonitrile]	
	1600 nM	CN(C)CCNC(=O)CNc1cc(Cl)c2ncc(C#N)c(Nc3ccc(F)c(Cl)c3)c2c1 [Example 605]	
	3.4 nM	N#Cc1cnc2c(Br)cc(NCc3cn(CCc4ccccn4)nn3)cc2c1Nc1ccc(F)c(Cl)c1 [Example 558]	
13 nM		CCOC(OCC)c1[nH]nnc1CNc1cc(Br)c2ncc(C#N)c(Nc3ccc(F)c(Cl)c3)c2c1 [Example 293, 8-Bromo-4-(3-chloro-4-fluoro-phenylamino)-6-[(5-diethoxymethyl-1H-[1,2,3]triazol-4-ylmethyl)-amino]-quinoline-3-carbonitrile]	
	> 40000 nM	N#Cc1cnc2ccc(N)cc2c1NC1CCN(Cc2ccccc2)CC1 [Example 363]	

More lines, now with the values behind:

Compound	IC50 [1]	IC50 [2]	further results
CC(=O)Nc1ccc(CNc2ccc3ncc(C#N)c(Nc4ccc(F)c(Cl)c4)c3c2)cc1 [Example 16, N-(4-{[4-(3-Chloro-4-fluoro-phenylamino)-3-cyano-quinolin-6-ylamino]-methyl}-phenyl)-acetamide]	227 nM		
CS(=O)(=O)Cn1cc(CNc2cc(Br)c3ncc(C#N)c(Nc4ccc(F)c(Cl)c4)c3c2)nn1 [Example 531]		33 nM	
N#Cc1cnc2c(Br)cc(NCc3cn(Cc4ccccn4)nn3)cc2c1Nc1ccc(F)c(Cl)c1 [Example 579]		33 nM	
N#Cc1cnc2c(Cl)cc(NCC3CCCN(C(=O)CCl)C3)cc2c1Nc1ccc(F)c(Cl)c1 (centres unmarked) [Example 924]			IC50 [3]: 1320 nM
N#Cc1cnc2ccc(NCc3cccc([N+](=O)[O-])c3)cc2c1Nc1ccc(F)c(Cl)c1 [Example 6, 4-(3-Chloro-4-fluoro-phenylamino)-6-(3-nitro-benzylamino)-quinoline-3-carbonitrile]	200 nM		
CC(C)N1CCC(CCn2cc(CNc3cc(Br)c4ncc(C#N)c(Nc5ccc(F)c(Cl)c5)c4c3)nn2)CC1 [Example 738]			IC50 [4]: 57 nM
N#Cc1cnc2c(Cl)cc(NCc3cn(C4CCN(CC(F)F)CC4)nn3)cc2c1Nc1ccc(F)c(Cl)c1 [Example 1015]			IC50 [3]: 92 nM
N#Cc1cnc2c(Cl)cc(NCc3cn(C4CC5CCC(C4)N5C=O)nn3)cc2c1Nc1ccc(F)c(Cl)c1 (centres unmarked) [Example 1059]			IC50 [3]: 14 nM
N#Cc1cnc2c(Cl)cc(NCCNC(=O)Cc3ccncc3)cc2c1Nc1ccc(F)c(Cl)c1 [Example 863]			IC50 [4]: 1040 nM
CC(=O)N1CCC(CCn2cc(CNc3cc(Cl)c4ncc(C#N)c(Nc5ccc(F)c(Cl)c5)c4c3)nn2)CC1 [Example 832]			IC50 [4]: 1.2 nM
CCN(C[C@@H]1CCCN1C(C)=O)c1cc(Cl)c2ncc(C#N)c(Nc3ccc(F)c(Cl)c3)c2c1 [Example 644]			IC50 [4]: > 3000 nM
N#Cc1cnc2c(Br)cc(NCc3cn(Cc4ccccn4)cn3)cc2c1Nc1ccc(F)c(Cl)c1 [Example 620]		34 nM	
N#Cc1cnc2c(Cl)cc(NCCNS(=O)(=O)c3ccccn3)cc2c1Nc1ccc(F)c(Cl)c1 [Example 856]			IC50 [4]: 820 nM
CC(Nc1ccc2ncc(C#N)c(Nc3ccc(F)c(Cl)c3)c2c1)c1cnccn1 (centres unmarked) [Example 260, 4-[(3-chloro-4-fluorophenyl)amino]-6-[(1-pyrazin-2-ylethyl)amino]quinoline-3-carbonitrile]	830 nM		
N#Cc1cnc2c(Cl)cc(NCc3cn(CCCO)nn3)cc2c1Nc1ccc(F)c(Cl)c1 [Example 581]		3.6 nM	
Cn1nc(CNc2cc(Br)c3ncc(C#N)c(Nc4ccc(F)c(Cl)c4)c3c2)cc1-c1ccccc1 [Example 453]		> 40000 nM	
CN1CCCC1CCNC(=O)CNc1cc(Cl)c2ncc(C#N)c(Nc3ccc(F)c(Cl)c3)c2c1 (centres unmarked) [Example 612]		> 3000 nM	
CC(C)(C)OC(=O)N1CCC[C@H]1CNc1ccc2ncc(C#N)c(Nc3ccc(F)c(Cl)c3)c2c1 [Example 40, 2-{[4-(3-Chloro-4-fluoro-phenylamino)-3-cyano-quinolin-6-ylamino]-methyl}-L-pyrrolidine-1-carboxylic acid tert-butyl ester]	2400 nM		
N#Cc1cnc2c(Br)cc(NCc3ccc(C(O)(C(F)(F)F)C(F)(F)F)cc3)cc2c1Nc1ccc(F)c(Cl)c1 [Example 428]		> 40000 nM	
1-[(3-chloro-4-fluorophenyl)amino]-5-[(1E)-3-hydroxyprop-1-en-1-yl]-7-[(1H-imidazol-5-ylmethyl)amino]-2-naphthonitrile [Example 313]	230 nM		
C=CCn1cc(CNc2cc(Br)c3ncc(C#N)c(Nc4ccc(F)c(Cl)c4)c3c2)nn1 [Example 561]		20 nM	
N#Cc1cnc2ccc(NCc3cc[nH]n3)cc2c1Nc1ccc(F)c(Cl)c1 [Example 27, 4-(3-Chloro-4-fluoro-phenylamino)-6-[(1H-pyrazol-3-ylmethyl)-amino]-quinoline-3-carbonitrile]	74 nM		
N#Cc1cnc2c(Cl)cc(NCc3cn(C4CCCN(C5CCC5)CC4)nn3)cc2c1Nc1ccc(F)c(Cl)c1 (centres unmarked) [Example 1030]			IC50 [3]: 12 nM
CC(C)(C)OC(=O)N1CC=C(c2cncc(CNc3cc(Cl)c4ncc(C#N)c(Nc5ccc(F)c(Cl)c5)c4c3)c2)CC1 [Example 1051]			IC50 [3]: > 3000 nM
N#Cc1cnc2ccc(NCc3ccc[n+]([O-])c3)cc2c1Nc1ccc(F)c(Cl)c1 [Example 30, 4-(3-Chloro-4-fluoro-phenylamino)-6-[(1-oxy-pyridin-3-ylmethyl)-amino]-quinoline-3-carbonitrile]	130 nM		
CN(C)C(=O)CNc1ccc2ncc(C#N)c(Nc3ccc(F)c(Cl)c3)c2c1 [Example 103, 2-(4-(3-chloro-4-fluorophenylamino)-3-cyanoquinolin-6-ylamino)-N,N-dimethylacetamide]	510 nM		
N#Cc1cnc2c(Br)cc(NCc3cn(CCO)nn3)cc2c1Nc1ccc(F)c(Cl)c1 [Example 510]		28 nM	
